Patent publication US8058227B2, “Method of treating fibrosis in a subject in need thereof comprising administering a composition comprising a CSD” (Medical University of South Carolina, priority 2006, dated 2011)
Entries after “also recorded” stand apart in the source; their conditions may differ.

Legend:
[1] = system: scleroderma lung fibroblasts (SLF); assay: Immunocytochemistry and laser confocal microscopy of CSD peptide-treated SLF; assay type: cell-based, human
Method: (§1) NLF or SLF cultured in 4-well glass chamber slides (Nalge Nunc International, Naperville, Ill.) as previously described (43) were incubated with CSD peptide or scrambled (Scr) peptide, fixed, permeabilized, and stained red with 7-aminoactinomycin D to detect nuclei and green using appropriate primary and secondary antibodies to detect caveolin-1 or ph-ERK. Images were captured by confocal microscopy.
as §1, with “ph-JNK” for “caveolin-1”, “ph-Akt.” for “ph-ERK.”
NLF and SLF were cultured in 4-well glass chamber slides (Nalge Nunc International, Naperville, Ill.) and stained as previously described (43) using the indicated primary antibodies and appropriate secondary antibodies tagged with Alexa Fluoro® 488 (Molecular Probes, Eugene, Oreg.). Nuclei were stained with 7-aminoactinomycin D (Molecular Probes, Eugene, Oreg.). Images were acquired using a Zeiss 510SML Laser Confocal Microscope (excitation S490/20, emission D528/38) fitted with an oil-immersion objective (40×/1.4).

[2] = system: bleomycin-induced lung fibrosis; assay: Bleomycin-induced lung fibrosis and CSD treatment in mice; assay type: in vivo, mouse
Method: Extract from each mouse was analyzed by Western blotting (25 μg total protein per lane) using antibodies against ph-ERK, caveolin-1, PKCε, ASMA, PKCα, tenascin-C, ph-Akt, ph-JNK, and actin (loading control); and the results quantified densitometrically (averages±s.e.m. are shown). The level of each protein in “Saline” was set to 100 arbitrary units. Actin levels (loading control) were similar in all four samples (not shown). Statistical significance: ns, not significant; **p<0.01; ***p<0.001.
Masson's Trichrome-stained sections from the experiments described in FIG. 11 were used to evaluate the effects of bleomycin and the CSD peptide on collagen expression (blue product) and lung tissue morphology. […] To generate the table, Masson's Trichrome-stained slides of lung tissue from all 41 mice sacrificed 14 days after saline or bleomycin treatment were scored blind in terms of the portion of the lung with abnormal morphology using an arbitrary scale: Normal morphology as in A=0, slightly altered morphology as in B=1, moderately altered morphology as in C=2, and severely altered morphology as in D 3. Bar in C=0.1 mm.
This procedure was approved by the MUSC Institutional Animal Care & Use Committee. Ten-week old, male CD 1 mice (Charles River, Boston, Mass.) were anesthetized and received bleomycin (Calbiochem, La Jolla, Calif.) or saline solution by intratracheal instillation as previously described (44). Two approaches were used for CSD peptide treatment. In both approaches the peptide treatment was initiated one day prior to bleomycin. In the first approach, Alzet pumps delivering 0.5 μl/h for 14 days of a 1 mM solution of CSD peptide were implanted into twelve mice; twelve additional mice received no pump. In the second approach twelve mice received daily intraperitoneal injections of 100 μl of a 0.15 mM solution of the CSD peptide for 14 days; twelve additional mice received the scrambled peptide. One day later, six mice from each group of twelve received intratracheal bleomycin, six received saline. After 14 days, lungs were harvested. Half of each set of lungs was fixed, sectioned, and stained with Masson's Trichrome Stain. The other half of each set of lungs was dissolved in SDS-PAGE sample buffer for Western blotting experiments. Because very similar results were obtained using the two approaches to CSD peptide treatment, results were pooled.
Student's t test was used to analyze protein expression levels in lung tissue samples obtained from normal individuals and from scleroderma patients. Protein expression levels for samples obtained from in vitro experiments and from mice were analyzed by two-way analysis of variance (ANOVA) followed by the Bonferroni post-test. For experiments in which the degree of tissue damage in mice treated with bleomycin was scored on an arbitrary scale, data was analyzed using the Mann-Whitney rank sum test. In all tests, results were regarded as statistically significant if p<0.05.

[3] = system: eNOS; conditions: endothelial cells; Bernatchez et al. (4); cited from earlier work
[4] = mouse lung tissue, Western blotting, 14 days

For DGIWKASFTTFTVTKYWFYR [CSD peptide], the “level of caveolin-1 expression detected by IHC” value ([1]; CSD peptide vs Scr peptide) was “did not affect”, the “distribution of caveolin-1 staining” value ([1]; CSD peptide vs Scr peptide, particularly in SLF) was “staining associated with the plasma membrane becoming more prominent” and the “distribution of activated Akt staining” value ([1]; CSD peptide vs control peptide) was “preferentially decreased perinuclear, nuclear, and cytoplasmic staining while increasing staining associated with the plasma membrane”. For the same sequence, the “distribution of activated JNK staining” value ([1]; CSD peptide vs control peptide) was “preferentially decreased perinuclear staining and increased staining associated with the plasma membrane; also recorded: eliminated the intense punctate cytoplasmic staining”, the “level of activated Akt (IHC)” value ([1]; CSD peptide vs control peptide) was “decreases” and the “level of activated ERK (IHC)” value ([1]; CSD peptide vs control peptide) was “decreases”. For the same sequence, the “level of activated JNK (IHC)” value ([1]; CSD peptide vs control peptide) was “decreases”, the “localization of residual activated ERK staining” value ([1]; after CSD peptide) was “primarily perinuclear and cytoplasmic” and the median weight loss ([2]; bleomycin-treated mice receiving peptide (30% in untreated mice)) was 14 % of original weight. For the same sequence, the “tissue damage and collagen deposition” value ([2]; bleomycin-treated mice, CSD peptide via Alzet pumps or intraperitoneal injection, 14 days, Masson's Trichrome) was “slight to moderate”, the “survival and lung tissue morphology” value ([2]; bleomycin-treated mice, systemic treatment with the peptide) was “striking positive effect” and the “expression of caveolin-1 itself” value ([2]; lung tissue of bleomycin-treated mice, Western blotting) was “did not affect”. The “inhibition of bleomycin-induced decrease in PKCα” value [2, 4] was “about 50%”, the “inhibition of bleomycin-induced decrease in PKCε” value [2, 4] was “at least 75%” and the “inhibition of bleomycin-induced increase in ASMA” value [2, 4] was “at least 75%”. For the same sequence, the “inhibition of bleomycin-induced increase in ph-Akt” value [2, 4] was “at least 75%”, the “inhibition of bleomycin-induced increase in ph-ERK” value [2, 4] was “at least 75%” and the “inhibition of bleomycin-induced increase in ph-JNK” value [2, 4] was “at least 75%”. For the same sequence, the “inhibition of bleomycin-induced increase in tenascin-C” value [2, 4] was “at least 75%” and the eNOS activity [3] was “most strongly inhibited”.
